# Assay results from patent US20140239525A1, “INHALABLE PHARMACEUTICAL COMPOSITIONS” (BOARD OF REGENTS, UNIVERSITY OF TEXAS SYSTEM, priority 2011, published 2014).
# Where two headings read alike, the source gives them in different places.
# What was measured:
# [1] = Particle size distribution by laser diffraction (LD); type: physicochemical
# Protocol: Laser Diffraction (LD): Bulk CoQ10 powder was dispersed in 20% (v/v) 1,3-propanediol in deionized water for analysis of particle size distribution. This dispersed sample was then added to a small cell apparatus in a Malvern Mastersizer S® instrument (Malvern Instruments, Worcestershire, UK) equipped with a 300 mm lens until 5-10% obscuration was attained. The internal phase and dispersant refractive indexes were 1.45 and 1.33, respectively.
# (§1) Particle Size Distribution: Particle size distribution testing of the dispersed formulations was performed with LD using a wet sample dispersion unit stirring at 1,000 rpm coupled to a Malvern Spraytec® (Malvern Instruments, Worcestershire, UK) equipped with a 300 mm lens. The dispersed formulations were added to distilled water (dispersant) until approximately 5% laser obscuration was attained. The internal phase and dispersant refractive indexes were set as 1.45 and 1.33, respectively. A timed measurement was performed for 45 seconds with 1 second sampling periods (a total of 45 measurements). Results are presented as Dv(X) and span, where X is the cumulative percentile of particles under the referred size (e.g. Dv(50) corresponds to the median volume of the particles). Span is a measurement of particle size distribution calculated as [Dv(90)-Dv(10)]/Dv(50)]. A higher span indicates a more polydisperse particle size distribution.
# as §1, with “5%” for “5% laser”, “were” for “were set as”, “45 data acquisition periods).” for “45 measurements).”, “is the” for “is a”, “as [Dv(90)−Dv(10)]/Dv(50)].” for “as [Dv(90)-Dv(10)]/Dv(50)].”
# [2] = CoQ10 in lung tissue of mice after 15 min nose-only aerosol dosing; type: in vivo
# Protocol: (§2) Pulmonary Delivery to Mice: Animals were caged in groups of 4 and maintained on a normal rodent chow diet with free access to water. Prior to dosing, CD-1@ IGS ICR mice (Charles River Laboratories International, Inc., Wilmington, Mass., USA) were individually acclimatized for approximately 10 minutes per day for 3 days into restraint tubes, restricted by an anterior nose insert and a posterior holder. The dosing apparatus was placed inside a fume hood to collect escaping aerosol containing drug. To avoid influence from the airflow provided by the fume hood, an erlenmeyer container was placed at the end of the tubing system as a buffer. The airflow rate was set to 1 L/min to ensure proper drug aerosolization into the nose-only chamber (internal volume: 230 mL; diameter: 3.8 cm; length: 20.3 cm) using an Aeroneb Pro® vibrating-mesh nebulizer (Aerogen, Galway, Ireland). Following preparation, all formulations (saline control, DMPC, DPPC, and DSPC) were dosed for 15 minutes to mice weighing from 23 to 33 g each, at time of dosing. Each single-dose studied group consisted of thirty-six male animals. At each time point (0.5, 1, 3, 8, 24, and 48 hours after the end of the aerosolization event) six animals randomly selected from different dosing events of the same formulation were sacrificed by narcosis with carbon dioxide. As part of the collection process, blood was withdrawn by cardiac puncture, lungs were harvested, and a nasal wash was performed. The samples were extracted for analysis with liquid chromatography coupled with tandem mass spectrometry (LC/MS/MS).
# Analysis of CoQ10 Levels in Lung Tissue, Blood Plasma, and Nasal Cavity: For each experiment, CoQ10 levels were determined after liquid extraction using liquid chromatography coupled with tandem mass spectrometry (LC-MS/MS). The methods were validated in the drug concentration range of 0.1 to 600 μg/mL. The general sample preparation protocols for lung tissue, blood plasma, and nasal cavity analysis are described below. […]
# [3] = tested on: mice; assay: Survival and health of mice after aerosol dosing; type: in vivo; conditions: 48 hours after the end of the nebulization event
# Protocol: as §2, with “As part of the collection process, blood was withdrawn by cardiac puncture, lungs were harvested, and a nasal wash was performed. The samples were extracted for analysis with liquid chromatography coupled with tandem mass spectrometry (LC/MS/MS).” left out
# [4] = tested on: IL-12; assay: Inflammatory response: IL-12 in bronchoalveolar lavage supernatant by ELISA; type: in vivo, mice
# Protocol: The inflammatory response to the administration of hydrophobic bioactive agents (e.g., as discussed in connection with Example 1-3 above) was measured. Surgery is performed on sacrificed mice to expose the pleural cavity and trachea at the throat. […] An aliquot (about 0.75 mL) of phosphate buffered saline is instilled through the cannula into the lungs and removed to wash the bronchial and alveolar surfaces. This process is repeated for a total of three washes. The phosphate buffered saline containing cells is placed into centrifuge vials and centrifuged at about 3000 rpm (MiniSpin Plus, Eppendorf International, Hamburg, Del.). The supernatant is removed leaving the collected cells in the pellet. The supernatant from the BAL (Bronchoalveolar Lavage) is analyzed by enzyme-linked immunosorbent assay (ELISA) for IL-12 elevation (n=2 per sample tested).
# [5] = solubilized oral formulations, cited from earlier work
# [6] = after ball milling for 18 hours
# [7] = previous studies, same nebulizer
smiles,measurement,setting,value
"COC1=C(OC)C(=O)C(C/C=C(\C)CC/C=C(\C)CC/C=C(\C)CC/C=C(\C)CC/C=C(\C)CC/C=C(\C)CC/C=C(\C)CC/C=C(\C)CC/C=C(\C)CCC=C(C)C)=C(C)C1=O [CoQ10, Coenzyme Q10]",Dv(50),[1]; [6],29.87 μm
same,span,[1]; [6],2.282
same,particle size,[1]; bulk CoQ10 powder,30 μm
same,Dv(50),[1]; bulk material,29.87 μm
same,span,[1]; bulk material,2.051
same,time CoQ10 stays in the lungs at relatively high concentrations,"[2]; mice, after 15 min aerosol",up to 48 hours
same,Cmax relative to dispersions of cyclosporine A,[2]; [7],≤ 75 fold
same,Cmax relative to dispersions of itraconazole,[2]; [7],≤ 165 fold
same,survival and health signs,[3],all mice were alive and presenting healthy signs
same,IL-12 levels in BAL supernatant,[4]; ELISA,not associated with a rise in IL-12 levels
same,lung inflammation,"[4]; mouse, in vivo",does not cause lung inflammation
same,highest plasma concentration of CoQ10 reported in the literature,[5]; approximate conversion,approximately 9 μg/mL
same,highest plasma concentration of CoQ10 reported in the literature,[5],10.7 µmol/L
